According to EPA's ToxRefDB 2:

How the values were obtained:
dog [1] = conditions: Chronic toxicity, beagle, Oral, Feed, dose end: 52 week, group: cholinesterase
dog [2] = conditions: Chronic toxicity; beagle; Oral; Feed; dose end: 24 month; group: cholinesterase; cholinesterase / cholinesterase / cholinesterase / plasma cholinesterase (che)
rabbit [3] = conditions: Prenatal developmental toxicity study, Oral, Gavage/Intubation, dose end: 18 GD
rat [4] = conditions: Prenatal developmental toxicity study, other, Oral, Gavage/Intubation, dose end: 15 GD
mouse = conditions: Carcinogenicity; cd1; Oral; Feed; dose end: 104 week; group: cholinesterase; cholinesterase / cholinesterase / cholinesterase / cholinesterase (che)
rat [5] = conditions: Fertility (Segment I), sprague dawley, Oral, Gavage/Intubation, dose end: 7 GD
rat [6] = conditions: Fertility (Segment I), sprague dawley, Oral, Gavage/Intubation, dose end: 7 GD; remark: listed apart in the source
rabbit [7] = conditions: Prenatal developmental toxicity study; new zealand white; Oral; Gavage/Intubation; dose end: 19 GD; group: maternal; systemic / in life observation / body weight / body weight gain + systemic / in life observation / clinical signs / alopecia + systemic / in…
rat [8] = conditions: Prenatal developmental toxicity study, sprague dawley, Oral, Gavage/Intubation, dose end: 17 GD
dog [9] = conditions: Chronic toxicity; beagle; Oral; Gavage/Intubation; dose end: 6 month; group: systemic; systemic / in life observation / body weight / body weight + systemic / in life observation / clinical signs / pulse/pressure + systemic / …
rat [10] = conditions: Chronic toxicity, sprague dawley, Oral, Gavage/Intubation, dose end: 6 month, group: systemic
rat [11] = conditions: Fertility (Segment I), sprague dawley, Oral, Gavage/Intubation, dose end: 56 day
rat [12] = conditions: Prenatal developmental toxicity study, sprague dawley, Oral, Gavage/Intubation, dose end: 17 GD; remark: listed apart in the source
rat [13] = conditions: Sub-acute repeat dose toxicity, sprague dawley, Oral, Gavage/Intubation, dose end: 28 day
rabbit [14] = conditions: Prenatal developmental toxicity study, new zealand white, Oral, Gavage/Intubation, dose end: 19 GD, group: maternal
dog [15] = conditions: Sub-acute repeat dose toxicity; beagle; Oral; Gavage/Intubation; dose end: 1 month; group: systemic; systemic / clinical chemistry / cholesterol / cholesterol + systemic / in life observation / body weight / body weight + systemic / in life …
[16] = cholinesterase / cholinesterase / cholinesterase / plasma cholinesterase (che)
[17] = cholinesterase / cholinesterase / cholinesterase / plasma cholinesterase (che) + cholinesterase / cholinesterase / cholinesterase / brain …
[18] = group: developmental, developmental / developmental malformation / bone / fused
[19] = group: maternal, systemic / in life observation / body weight / body weight gain + systemic / urinalysis / appearance and color / appearance and color
[20] = group: maternal, systemic / in life observation / body weight / body weight gain + systemic / urinalysis / appearance and color / appearance and color + …
[21] = group: developmental, developmental / developmental malformation / bone / delayed ossification
[22] = group: maternal, systemic / in life observation / clinical signs / hyperactivity
[23] = group: maternal, reproductive / reproductive performance / estrous cycle / abnormal
[24] = group: parental, systemic / in life observation / clinical signs / [other] + systemic / in life observation / body weight / body weight gain + systemic / in …
[25] = group: maternal, reproductive / offspring survival early / litter viability other / total litter loss + reproductive / reproductive performance / …
[26] = group: parental, systemic / in life observation / body weight / body weight gain + systemic / in life observation / clinical signs / abnormal motor movement…
[27] = group: developmental, systemic / in life observation / body weight / fetal weight
[28] = group: maternal, systemic / in life observation / body weight / body weight + systemic / in life observation / body weight / body weight gain + systemic / in…
[29] = systemic / clinical chemistry / alanine aminotransferase (alt/sgpt) / alanine aminotransferase (alt/sgpt) + systemic / clinical chemistry / …
[30] = systemic / in life observation / clinical signs / [other] + systemic / organ weight / uterus / absolute + systemic / organ weight / uterus…
[31] = group: maternal, reproductive / reproductive performance / estrous cycle / corpora lutea + reproductive / reproductive performance / implantations / …
[32] = group: parental, systemic / in life observation / body weight / body weight gain + systemic / in life observation / clinical signs / [other] + systemic / in …
[33] = group: developmental, developmental / developmental malformation / bone / incomplete ossification + systemic / in life observation / body weight / fetal weight
[34] = group: systemic, systemic / in life observation / clinical signs / excessive or spontaneous vocalization + systemic / organ weight / salivary glands / …
[35] = systemic / in life observation / body weight / body weight gain + systemic / in life observation / food consumption / food consumption
[36] = systemic / in life observation / body weight / body weight gain + systemic / in life observation / food consumption / food consumption + …

With `CCOP(=S)(OCC)SCSP(=S)(OCC)OCC` [Ethion] the LEL (dog [1]; [16]) was 0.049 mg/kg/day, the LOAEL (dog [1]; [16]) was 0.049 mg/kg/day and the NEL (dog [1]; [17]) was 0.026 mg/kg/day. For the same compound, the NOAEL (dog [1]; [17]) was 0.026 mg/kg/day, the LEL (dog [2]) was 0.403 mg/kg/day and the LOAEL (dog [2]) was 0.403 mg/kg/day. The NEL (dog [2]) was 0.123 mg/kg/day, the NOAEL (dog [2]) was 0.123 mg/kg/day and the LEL (rabbit [3]; [18]) was 9.6 mg/kg/day. For the same compound, the LOAEL (rabbit [3]; [18]) was 9.6 mg/kg/day, the NEL (rabbit [3]; [18]) was 2.4 mg/kg/day and the NOAEL (rabbit [3]; [18]) was 2.4 mg/kg/day. The LEL (rabbit [3]; [19]) was 2.4 mg/kg/day, the LOAEL (rabbit [3]; [19]) was 2.4 mg/kg/day and the NEL (rabbit [3]; [20]) was 0.6 mg/kg/day. The NOAEL (rabbit [3]; [20]) was 0.6 mg/kg/day, the LEL (rat [4]; [21]) was 2.5 mg/kg/day and the LOAEL (rat [4]; [21]) was 2.5 mg/kg/day. It also gave an NEL (rat [4]; [21]) of 0.6 mg/kg/day, an NOAEL (rat [4]; [21]) of 0.6 mg/kg/day and an LEL (rat [4]; [22]) of 2.5 mg/kg/day. For the same compound, the LOAEL (rat [4]; [22]) was 2.5 mg/kg/day, the NEL (rat [4]; [22]) was 0.6 mg/kg/day and the NOAEL (rat [4]; [22]) was 0.6 mg/kg/day. It also gave an LEL (mouse) of 1.2 mg/kg/day, an LOAEL (mouse) greater than 1.2 mg/kg/day and an NEL (mouse) of 0.22 mg/kg/day. For the same compound, the NOAEL (mouse) was no less than 1.2 mg/kg/day.
Work on `FC(F)(F)c1cccc(C2=CCN(CCc3ccc4ccncc4c3)CC2)c1` yielded an LEL (rat [5]; [23]) of 0.1 mg/kg/day, an LOAEL (rat [5]; [23]) of 0.1 mg/kg/day and an NEL (rat [5]; [23]) of less than 0.1 mg/kg/day. It also gave an NOAEL (rat [5]; [23]) of less than 0.1 mg/kg/day, an LEL (rat [5]; [24]) of 0.1 mg/kg/day and an LOAEL (rat [5]; [24]) of 0.1 mg/kg/day. It also gave an NEL (rat [5]; [24]) of less than 0.1 mg/kg/day, an NOAEL (rat [5]; [24]) of less than 0.1 mg/kg/day and an LOAEL (rat [6]; [25]) greater than 7.5 mg/kg/day. For the same compound, the NOAEL (rat [6]; [25]) was no less than 7.5 mg/kg/day, the LEL (rat [6]; [23]) was 0.1 mg/kg/day and the NEL (rat [6]; [23]) was less than 0.1 mg/kg/day. It also gave an LEL (rat [6]; group: parental, systemic / in life observation / body weight / body weight gain) of 1 mg/kg/day, an LOAEL (rat [6]; [26]) greater than 7.5 mg/kg/day and an NEL (rat [6]; [26]) of 0.1 mg/kg/day. For the same compound, the NOAEL (rat [6]; [26]) was no less than 7.5 mg/kg/day, the LEL (rabbit [7]) was 0.01 mg/kg/day and the LOAEL (rabbit [7]) was greater than 0.05 mg/kg/day. It also gave an NEL (rabbit [7]) of less than 0.01 mg/kg/day, an NOAEL (rabbit [7]) of no less than 0.05 mg/kg/day and an LEL (rat [8]; [27]) of 7.5 mg/kg/day. For the same compound, the LOAEL (rat [8]; [27]) was 7.5 mg/kg/day, the NEL (rat [8]; [27]) was 2.5 mg/kg/day and the NOAEL (rat [8]; [27]) was 2.5 mg/kg/day. The LEL (rat [8]; [28]) was 0.75 mg/kg/day, the LOAEL (rat [8]; [28]) was greater than 7.5 mg/kg/day and the NEL (rat [8]; [28]) was less than 0.75 mg/kg/day. The NOAEL (rat [8]; [28]) was no less than 7.5 mg/kg/day, the LEL (dog [9]) was 0.01 mg/kg/day and the LOAEL (dog [9]) was greater than 0.25 mg/kg/day. It also gave an NEL (dog [9]) of less than 0.01 mg/kg/day, an NOAEL (dog [9]) of no less than 0.25 mg/kg/day and an LOAEL (rat [10]; [29]) greater than 7.5 mg/kg/day. It also gave an NOAEL (rat [10]; [29]) of no less than 7.5 mg/kg/day, an LEL (rat [10]; [30]) of 0.1 mg/kg/day and an NEL (rat [10]; [30]) of less than 0.1 mg/kg/day. For the same compound, the LEL (rat [11]; [31]) was 7.5 mg/kg/day, the LOAEL (rat [11]; [31]) was greater than 7.5 mg/kg/day and the NEL (rat [11]; [31]) was 1 mg/kg/day. For the same compound, the NOAEL (rat [11]; [31]) was no less than 7.5 mg/kg/day, the LEL (rat [11]; [32]) was 0.1 mg/kg/day and the LOAEL (rat [11]; [32]) was 0.1 mg/kg/day. It also gave an NEL (rat [11]; [32]) of less than 0.1 mg/kg/day, an NOAEL (rat [11]; [32]) of less than 0.1 mg/kg/day and an LEL (rat [12]; [33]) of 7.5 mg/kg/day. For the same compound, the LOAEL (rat [12]; [33]) was 7.5 mg/kg/day, the NEL (rat [12]; [33]) was 2.5 mg/kg/day and the NOAEL (rat [12]; [33]) was 2.5 mg/kg/day. The LEL (rat [12]; [28]) was 0.75 mg/kg/day, the LOAEL (rat [12]; [28]) was greater than 7.5 mg/kg/day and the NEL (rat [12]; [28]) was less than 0.75 mg/kg/day. It also gave an NOAEL (rat [12]; [28]) of no less than 7.5 mg/kg/day, an LEL (rat [13]; [23]) of 1 mg/kg/day and an LOAEL (rat [13]; [23]) greater than 7.5 mg/kg/day. It also gave an NEL (rat [13]; [23]) of 0.1 mg/kg/day, an NOAEL (rat [13]; [23]) of no less than 7.5 mg/kg/day and an LEL (rat [13]; [34]) of 0.1 mg/kg/day. It also gave an LOAEL (rat [13]; [34]) of 0.1 mg/kg/day, an NEL (rat [13]; [34]) of less than 0.1 mg/kg/day and an NOAEL (rat [13]; [34]) of less than 0.1 mg/kg/day. For the same compound, the LEL (rabbit [14]; [35]) was 0.01 mg/kg/day, the NEL (rabbit [14]; [35]) was less than 0.01 mg/kg/day and the LOAEL (rabbit [14]; [36]) was greater than 0.05 mg/kg/day. It also gave an NOAEL (rabbit [14]; [36]) of no less than 0.05 mg/kg/day, an LEL (dog [15]) of 0.01 mg/kg/day and an LOAEL (dog [15]) of 0.01 mg/kg/day. For the same compound, the NEL (dog [15]) was less than 0.01 mg/kg/day and the NOAEL (dog [15]) was less than 0.01 mg/kg/day.
